According to the NIST ThermoML archive (doi:10.1021/je800110r):

Conditions: 283.15 K, Liquid, Vibrating tube method

CCCCCCCCCC [decane]
Conditions	mass density [kg/m3]
11428 kPa	745.5
11443 kPa	745.5
11462 kPa	745.5
11483 kPa	745.5
11498 kPa	745.5
11518 kPa	745.4
11530 kPa	745.6
11543 kPa	745.5
11625 kPa	745.7
11647 kPa	745.7
11663 kPa	745.7
11681 kPa	745.6
11774 kPa	745.8
11790 kPa	745.8
11806 kPa	745.8
11824 kPa	745.8
11838 kPa	745.7
11856 kPa	745.8
11876 kPa	745.9
11889 kPa	745.8
11904 kPa	745.8
11924 kPa	745.9
11943 kPa	745.8
11954 kPa	745.8
11969 kPa	745.9
11982 kPa	746
11997 kPa	745.9
12010 kPa	746
12024 kPa	745.9
12038 kPa	746
12052 kPa	745.9
12068 kPa	745.9
12080 kPa	746
12094 kPa	745.9
12108 kPa	746
12130 kPa	746
12149 kPa	746
12165 kPa	745.9
12180 kPa	746.1
12197 kPa	746
12211 kPa	746
12226 kPa	746
12241 kPa	745.9
12262 kPa	746.1
12280 kPa	746.1
12300 kPa	746
12319 kPa	746.1
12339 kPa	746.1
12356 kPa	746.1
12371 kPa	746.1
12386 kPa	746.2
12401 kPa	746.1
12415 kPa	746.2
12431 kPa	746.2
12451 kPa	746.3
12469 kPa	746.2
12484 kPa	746.2
12505 kPa	746.2
12519 kPa	746.2
12535 kPa	746.3
12550 kPa	746.3
12571 kPa	746.3
12588 kPa	746.3
12602 kPa	746.3
12618 kPa	746.3
12633 kPa	746.3
12649 kPa	746.3
12665 kPa	746.3
12678 kPa	746.3
12693 kPa	746.4
12709 kPa	746.4
12725 kPa	746.3
12741 kPa	746.3
12756 kPa	746.4
12772 kPa	746.5
12794 kPa	746.4
12812 kPa	746.3
12837 kPa	746.4
12855 kPa	746.5
12877 kPa	746.5
12895 kPa	746.6
12914 kPa	746.5
12933 kPa	746.5
12955 kPa	746.4
12972 kPa	746.5
12994 kPa	746.6
13013 kPa	746.5
13033 kPa	746.5
13052 kPa	746.5
13075 kPa	746.5
13095 kPa	746.6
13117 kPa	746.6
13316 kPa	746.8
13337 kPa	746.7
13598 kPa	746.9
13632 kPa	746.9
13652 kPa	747
13673 kPa	747
13697 kPa	746.9
13715 kPa	747
13740 kPa	747
13765 kPa	747.1
13787 kPa	747.1
13809 kPa	747
13831 kPa	747.1
13856 kPa	747
13875 kPa	747.2
13901 kPa	747.1
13923 kPa	747.1
13949 kPa	747.1
13968 kPa	747.2
13994 kPa	747.2
14017 kPa	747.2
14039 kPa	747.2
14062 kPa	747.3
14088 kPa	747.2
14138 kPa	747.2
14164 kPa	747.3
14191 kPa	747.4
14216 kPa	747.4
14359 kPa	747.4
14385 kPa	747.5
14411 kPa	747.4
14428 kPa	747.6
14446 kPa	747.5
14481 kPa	747.5
14499 kPa	747.5
14528 kPa	747.6
14543 kPa	747.6
14563 kPa	747.5
14578 kPa	747.6
14599 kPa	747.6
14614 kPa	747.6
14632 kPa	747.6
14650 kPa	747.6
14668 kPa	747.7
14686 kPa	747.7
14704 kPa	747.6
14722 kPa	747.7
14741 kPa	747.7
14759 kPa	747.7
14777 kPa	747.6
14795 kPa	747.6
14826 kPa	747.7
14844 kPa	747.7
14862 kPa	747.7
14881 kPa	747.8
14903 kPa	747.7
14925 kPa	747.8
14941 kPa	747.8
14963 kPa	747.8
14979 kPa	747.8
14998 kPa	747.9
15017 kPa	748
15036 kPa	747.9
15055 kPa	747.9
15077 kPa	747.9
15100 kPa	747.8
15119 kPa	747.9
15139 kPa	747.9
15239 kPa	748
15312 kPa	748
15351 kPa	748.1
15368 kPa	748.1
15391 kPa	748.2
15415 kPa	748
15442 kPa	748.1
15466 kPa	748.3
15486 kPa	748.1
15507 kPa	748.2
15524 kPa	748.3
15545 kPa	748.3
15569 kPa	748.3
15590 kPa	748.2
15617 kPa	748.3
15645 kPa	748.4
15669 kPa	748.2
15693 kPa	748.3
15718 kPa	748.3
15743 kPa	748.2
15771 kPa	748.4
15799 kPa	748.3
15821 kPa	748.3
15850 kPa	748.3
15874 kPa	748.4
15899 kPa	748.4
15920 kPa	748.6
15949 kPa	748.5
15981 kPa	748.6
16007 kPa	748.4
16028 kPa	748.6
16083 kPa	748.6
16109 kPa	748.6
16135 kPa	748.5
16168 kPa	748.6
16191 kPa	748.6
16221 kPa	748.6
16257 kPa	748.7
16288 kPa	748.7
16310 kPa	748.7
16344 kPa	748.8
16378 kPa	748.7
16405 kPa	748.8
16433 kPa	748.8
16467 kPa	748.7
16494 kPa	748.9
16528 kPa	748.8
16560 kPa	748.9
16587 kPa	749
16619 kPa	748.8
16643 kPa	749
16667 kPa	749
16703 kPa	748.8
16739 kPa	749
16759 kPa	748.8
16796 kPa	749
16824 kPa	749
16852 kPa	749.1
16880 kPa	749
16905 kPa	748.9
16938 kPa	749.2
16967 kPa	749.2
16993 kPa	749.1
17030 kPa	749.2
17063 kPa	749.1
17088 kPa	749.1
17127 kPa	749.2
17153 kPa	749.2
17192 kPa	749.2
17213 kPa	749.3
17240 kPa	749.3
17267 kPa	749.4
17293 kPa	749.4
17316 kPa	749.4
17343 kPa	749.4
17366 kPa	749.5
17390 kPa	749.4
17422 kPa	749.4
17451 kPa	749.3
17470 kPa	749.5
17498 kPa	749.4
17521 kPa	749.4
17549 kPa	749.4
17626 kPa	749.5
17652 kPa	749.5
17711 kPa	749.6
17734 kPa	749.6
17770 kPa	749.5
17792 kPa	749.7
17815 kPa	749.7
17841 kPa	749.8
17864 kPa	749.7
17898 kPa	749.9
17925 kPa	749.6
17948 kPa	749.7
17982 kPa	749.9
18017 kPa	749.8
18044 kPa	749.8
18071 kPa	749.9
18099 kPa	749.9
18130 kPa	749.9
18154 kPa	749.9
18178 kPa	749.9
18210 kPa	750
18246 kPa	750
18305 kPa	750
18383 kPa	750
18574 kPa	750.2
18652 kPa	750.2
18691 kPa	750.2
18719 kPa	750.1
18746 kPa	750.2
18770 kPa	750.3
18793 kPa	750.3
